# Source: patent US20260224592A1, “COMPOSITIONS AND METHODS FOR TREATING SEVERE […]” (SHENZHEN HIGHTIDE BIOPHARMACEUTICAL LTD., priority 2023, published 2026)
# What was measured:
# [1] = tested on: high fat diet induced hyperlipidemia/NAFLD hamster model; assay: Study B: hyperlipidemia/NAFLD hamster model, BUDCA versus UDCA or BBR-Cl, 6 weeks treatment; type: in vivo, golden hamster; conditions: for Serum lipids HDL-c / Serum lipids LDL-c / Serum lipids TC / Serum lipids TG: 6 weeks daily oral, equimolar high doses: 200 mg/kg BUDCA; for Serum lipids HDL-c / Serum lipids LDL-c / Serum lipids TC / Serum lipids TG / Liver TC / Liver TG / Proportion of oil red O staining positive area / Steatosis Score of HE staining: 107.8 mg/kg UDCA, 102.2 mg/kg BBR-Cl, mean ± SEM; for Liver TC / Liver TG / Proportion of oil red O staining positive area / Steatosis Score of HE staining: 200 mg/kg BUDCA
# Experimental: Study B was conducted using the same hamster model as described in Study A to evaluate the efficacy of BUDCA as well as to compare the effects of BUDCA with equivalent doses of either UDCA or BBR-Cl on their own. The model was induced with the same method as indicated in Study A. After the 2-week induction period, hamsters were randomized into treatment groups and continued the high fat diet for an additional 6-week period, concurrent with the daily oral administration of various doses of BUDCA (Low dose: […]; Medium dose: 100 mg/mL; […]), BBR-Cl on its own (Low dose: 51.1 mg/mL; […]), UDCA on its own (Low dose: 53.9 mg/mL; […]), or a 1:1 physical mixture of BBR-Cl and UDCA equivalent to a lower dose of BUDCA (105.0 mg/mL). A model control group continued the high fat diet and normal control group fed the standard diet were both administered the vehicle 0.5% carboxymethyl cellulose sodium (CMC-Na) solution. All animals were sacrificed for terminal evaluations at the end of the 6-week dosing period.
# Endpoints evaluated included serum lipids (TC, TG, LDL-C, HDL-C), liver lipid content (TC and TG), liver injury (ALT, AST, total bile acids (TBA) and total bilirubin (TBIL)), liver weight (expressed relative to body weight as liver index), macroscopic observation and histopathology evaluation of the livers. Histopathology endpoints included pathologist observation, as well as numerical comparison via the nonalcoholic fatty liver disease activity score (NAS) and a fibrosis severity score.
# Terminal endpoints in model control animals also confirmed increased liver weight and histopathology of the liver as evidenced by steatosis, hepatocytes swelling, punctate necrosis, inflammatory cell infiltration and local fibrosis. Therefore, the model was not only able to replicate key characteristics of the NAFLD disease spectrum in humans, but also hyperlipidemia.
# [2] = tested on: overweight or obese adults with hypercholesterolemia; assay: Study C: Phase 1b/2a study in overweight or obese adults with hypercholesterolemia, 28 days; type: in vivo, human; conditions: BUDCA 250, 500 or 1000 mg BID, maximum reductions relative to placebo after 14 days
# Experimental: In a Phase 1b/2a study, 50 overweight or obese adults with hypercholesterolemia were enrolled and treated with BUDCA for 28 days. The primary objective was to evaluate safety and tolerability of BUDCA. Given that the subjects enrolled in this study were obese with a history of hypercholesteremia, the focus of the efficacy and PD endpoints was lipid metabolism. Key entry criteria included BMI 2 and LDL-C, BUDCA 250 mg BID (N=12), BUDCA 500 mg BID (N=12), or BUDCA 1000 mg BID (N=12).
# While all subjects had hypercholesteremia at baseline, TG levels generally ranged from normal to mild HTG (three subjects from each of placebo, BUDCA 500 mg BID, and BUDCA 1000 mg BID had TG values >200 mg/dL) and HDL-C levels were generally in the normal range.
# subjects with HTG = assay: Pooled analysis of Study C and Study D in subjects with HTG (baseline TGs above 200 mg/dL); type: in vivo, human; conditions: for placebo-corrected median percent change from baseline in TGs: end of treatment
# Experimental: Efficacy was also tested in two clinical studies that established merits for further clinical study in patients with SHTG: Study C was conducted in adults with hypercholesterolemia and […] and T2DM. A pooled analysis was conducted based on these two studies specifically evaluating the data from subjects who had HTG at baseline (TG 200 mg/dL).
# To further investigate the potential of BUDCA for lowering TGs in patients with elevated TGs, a pooled analysis across studies Study C and Study D was conducted focusing on the subjects with baseline TGs above 200 mg/dL (HTG) (Table 6). The analysis pooled the baseline and end of treatment timepoints for this evaluation as the two studies had different durations (4 weeks vs 18 weeks).
# [3] = tested on: adults with NASH and T2DM; assay: Study D: randomized, double-blind, placebo-controlled Phase 2 study in adults with NASH and T2DM, 18 weeks; type: in vivo, human
# Experimental: Study D was a randomized, double-blind, placebo-controlled Phase 2 study in adults with NASH and T2DM. The primary objective of this study was to evaluate the change from baseline in liver fat content as assessed by MRI-PDFF, but also evaluated changes in key cardiometabolic parameters, including lipids. Key entry criteria included the clinical diagnosis of NASH and T2DM and BMI >25.0 kg/m2. Subjects were randomized and treated with placebo (N=33), BUDCA 500 mg BID (N=33), or BUDCA 1000 mg BID (N=34) for 18 weeks (Harrison 2021).
# Demographic characteristics were generally well balanced among treatment groups. The median age overall was 57 years (range: 26 to 75 years), and there were 72% females and 28% males. Most subjects were White (91%) and not Hispanic or Latino (62%). Mean baseline weight and BMI were similar across treatment groups. On average, LDL-C was elevated and near the upper limit of the normal range and TGs were elevated above the normal. Baseline values for HbA1c, ALT, GGT, liver fat content, and cT1 were similar across treatment groups.
# Study D evaluated the effects of BUDCA on lipids as secondary efficacy endpoints. On average, subjects had near-normal LDL-C at baseline with borderline-high levels of TG. While the average values were generally similar across treatment groups, it should be noted that LDL-C was lower in the BUDCA 500 mg BID treatment group while TGs were lower in the BUDCA 1000 mg BID treatment group (Table 6). […] Reductions in TGs with the […] dose were statistically significant compared with placebo. Reduced TG levels were paralleled with a reduction in LDL-C after 18 weeks of treatment with BUDCA 1000 mg BID (−13%), but not with BUDCA 500 mg BID (3%) or with placebo (0%).
# [4] = tested on: high fat diet induced hyperlipidemia/NAFLD hamster model; assay: Study A: high-fat/high-cholesterol diet induced hyperlipidemia/NAFLD hamster model, 7 weeks treatment; type: in vivo, Male Golden Syrian hamsters; conditions: for HDL-c (serum) / LDL-c (serum) / PCSK9 (serum) / TC (serum) / TG (serum) / AI value (atherosclerosis index): mean ± SEM; for AI value (atherosclerosis index): AI = (TC − HDL-c)/HDL-c
# Experimental: Various pre-clinical and clinical studies were performed to evaluate safety and efficacy of BUDCA. Primary and secondary pharmacodynamics studies were performed. Specific to nonclinical proof of concept for BUDCA in SHTG, the efficacy of BUDCA on hyperlipidemia/NAFLD was evaluated in two studies (Study A and Study B) using a high fat diet induced hyperlipidemia/NAFLD hamster model. Dietary induced changes in hamsters can be considered a valid model for dyslipidemia.
# Male Golden Syrian hamsters were fed with a high-fat/high-cholesterol diet which contained 1.25% cholesterol, 20.06% grease (2.79% soybean oil, 17.27% cocoa butter) to establish the hyperlipidemia/NAFLD model. After 2 weeks of high-fat/high-cholesterol diet inducement, 24 hamsters with fasting TC level 17.96±1.70 mmol/L were selected and divided into 3 groups of 8 hamsters each (model group G1, 50 mg/kg/day BUDCA group G2, and 200 mg/kg/day BUDCA group G3). Eight hamsters comprising the normal control were fed with a normal chow diet.
# The normal and Model control groups received vehicle (10 mL/kg 0.5% gum tragacanth solution), while the two BUDCA treatment groups received BUDCA, via intragastric administration for 7 weeks prior to sacrifice.
# During the treatment period, blood was collected at weeks 1, 3, 5, and 7, for biochemical analysis including serum TC, TG, HDL-c, LDL-c, and liver enzymes. At the end of the study, animals were sacrificed for liver macroscopic observation and liver tissues were collected for histopathological evaluations and liver lipid contents.
# [5] = both doses of BUDCA, HTG subgroup
# [6] = 50 mg/kg/day BUDCA intragastric, 7 weeks
# [7] = 200 mg/kg/day BUDCA intragastric, 7 weeks
structure (smiles),measurement,setting,value
COc1ccc2cc3[n+](cc2c1OC)CCc1cc2c(cc1-3)OCO2.[Cl-] [BBR-Cl],Serum lipids HDL-c,[1],5.24 ± 0.30 mmol/L
same,Serum lipids LDL-c,[1],6.53 ± 1.10 mmol/L
same,Serum lipids TC,[1],14.86 ± 1.23 mmol/L
same,Serum lipids TG,[1],3.72 ± 0.37 mmol/L
same,Liver TC,[1]; 6 weeks,29.27 ± 4.47 mg/g
same,Liver TG,[1]; 6 weeks,19.18 ± 2.24 mg/g
same,Proportion of oil red O staining positive area,[1]; 6 weeks,18.97 ± 2.43 %
same,Steatosis Score of HE staining,[1]; 6 weeks,2.75 ± 0.16
"COc1ccc2cc3[n+](cc2c1OC)CCc1cc2c(cc1-3)OCO2.C[C@H](CCC(=O)[O-])[C@H]1CC[C@H]2[C@@H]3[C@@H](O)C[C@@H]4C[C@H](O)CC[C@]4(C)[C@H]3CC[C@]12C [BUDCA, Berberine Ursodeoxycholate]",serum lipid levels,[2],decreased in a dose-dependent fashion
same,placebo-corrected median percent change from baseline in TGs,"subjects with HTG; BUDCA 500 mg BID, 95% CI (−52.63, 17.93)",−12.3%
same,HDL-C at the end of treatment,"subjects with HTG; BUDCA 1000 mg BID, HTG population",increase in HDL-C
same,placebo-corrected median percent change from baseline in TGs,"subjects with HTG; BUDCA 1000 mg BID, 95% CI (−55.57, 16.61)",−17.7%
same,change from baseline to end of treatment in body weight,"subjects with HTG; BUDCA 1000 mg BID, subjects with HTG, based solely on one of the two studies",-4.6 kg
same,LDL-C at the end of treatment,"subjects with HTG; both doses of BUDCA (500 and 1000 mg BID), HTG population",decrease in LDL-C
same,HbA1c,subjects with HTG; [5],no worsening of HbA1c
same,fasting plasma glucose,subjects with HTG; [5],decrease in fasting plasma glucose
same,HbA1c change from baseline,"[3]; 18 weeks of BUDCA treatment (500 and 1000 mg BID), in contrast to increase with placebo",Significant dose dependent reductions
same,"LDL-C, change from baseline to week 18","[3]; BUDCA 500 mg BID, 18 weeks",3%
same,"TG levels, change from baseline to week 18","[3]; BUDCA 500 mg BID, 18 weeks",−9%
same,mean change in fasting plasma glucose,"[3]; BUDCA 500 mg BID, 18 weeks",-18 mg/dL
same,"LDL-C, change from baseline to week 18","[3]; BUDCA 1000 mg BID, 18 weeks",−13%
same,"TG levels, change from baseline to week 18","[3]; BUDCA 1000 mg BID, 18 weeks",−11%
same,mean change in fasting plasma glucose,"[3]; BUDCA 1000 mg BID, 18 weeks",-22 mg/dL
same,change from baseline in body weight,"[3]; BUDCA 1000 mg BID, 18 weeks, p<0.05 vs placebo",-3.5 kg
same,Serum lipids HDL-c,[1],4.25 ± 0.40 mmol/L
same,Serum lipids LDL-c,[1],1.26 ± 0.15 mmol/L
same,Serum lipids TC,[1],7.03 ± 0.73 mmol/L
same,Serum lipids TG,[1],2.06 ± 0.39 mmol/L
same,Liver TC,[1]; 6 weeks,4.59 ± 0.84 mg/g
same,Liver TG,[1]; 6 weeks,3.92 ± 0.50 mg/g
same,Proportion of oil red O staining positive area,[1]; 6 weeks,1.18 ± 0.69 %
same,Steatosis Score of HE staining,[1]; 6 weeks,1.00 ± 0.38
same,"serum TC and TG, LDL-C, ALT, AST, TBA, TBIL, liver weight, liver TC and TG, NAS score, and fibrosis (score and % area)","[1]; relative to model control animals, low, medium and high dose BUDCA, 6 weeks",reduced all the following parameters in a dose dependent manner
same,"beneficial effects on most parameters, including serum lipids and liver lipid deposition, compared with the individual moieties",[1]; versus equivalent doses of UDCA or BBR administered alone,greater than those achieved with either UDCA or BBR when administered alone
same,HDL-c (serum),[4]; [6],3.42 ± 0.28 mmol/L
same,LDL-c (serum),[4]; [6],2.95 ± 1.72 mmol/L
same,PCSK9 (serum),[4]; [6],124.9 ± 16.8 pg/mL
same,TC (serum),[4]; [6],9.78 ± 2.58 mmol/L
same,TG (serum),[4]; [6],3.88 ± 1.21 mmol/L
same,Liver TC,"[4]; 50 mg/kg/day BUDCA, 7 weeks",14.62 ± 4.89 mg/g
same,Liver TG,"[4]; 50 mg/kg/day BUDCA, 7 weeks",5.40 ± 2.64 mg/g
same,AI value (atherosclerosis index),"[4]; 50 mg/kg/day BUDCA, 7 weeks",1.88 ± 0.83
same,HDL-c (serum),[4]; [7],2.53 ± 0.29 mmol/L
same,LDL-c (serum),[4]; [7],1.23 ± 0.28 mmol/L
same,PCSK9 (serum),[4]; [7],179.0 ± 30.9 pg/mL
same,TC (serum),[4]; [7],4.95 ± 0.84 mmol/L
same,TG (serum),[4]; [7],1.90 ± 0.66 mmol/L
same,Liver TC,"[4]; 200 mg/kg/day BUDCA, 7 weeks",3.82 ± 1.78 mg/g
same,Liver TG,"[4]; 200 mg/kg/day BUDCA, 7 weeks",5.61 ± 1.98 mg/g
same,AI value (atherosclerosis index),"[4]; 200 mg/kg/day BUDCA, 7 weeks",0.95 ± 0.19
same,serum PCSK9 levels compared to the Model control group,"[4]; 7-weeks of BUDCA treatment, P<0.05",significantly reduced
same,"serum TG, TC, LDL-c levels, and AI compared to the model group","[4]; BUDCA 50 and 200 mg/kg/day, 7 weeks, P<0.01, dose-dependent",significantly reduced
same,liver contents of TG and TC compared to the model group,"[4]; both doses of BUDCA, 7 weeks, P<0.01",significantly decreased
C[C@H](CCC(=O)O)[C@H]1CC[C@H]2[C@@H]3[C@@H](O)C[C@@H]4C[C@H](O)CC[C@]4(C)[C@H]3CC[C@]12C [UDCA],Serum lipids HDL-c,[1],4.81 ± 0.15 mmol/L
same,Serum lipids LDL-c,[1],3.83 ± 0.47 mmol/L
same,Serum lipids TC,[1],10.13 ± 0.73 mmol/L
same,Serum lipids TG,[1],2.17 ± 0.18 mmol/L
same,Liver TC,[1]; 6 weeks,17.95 ± 4.04 mg/g
same,Liver TG,[1]; 6 weeks,11.24 ± 2.69 mg/g
same,Proportion of oil red O staining positive area,[1]; 6 weeks,11.72 ± 4.65 %
same,Steatosis Score of HE staining,[1]; 6 weeks,2.13 ± 0.35
